In ChEMBL document CHEMBL1201862, “PubChem BioAssay data set” (2004):
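Five compound concentrations were applied to cells in 96-well plates for 48 hours; endpoints were derived by simple linear interpolation of the resulting dose-response curve. At the GI50, growth is halved.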 Activity calls are given as the source filed them. Rule as the data show it: active = GI50 up to about 1.1 µM and inactive = higher.

Key:
Assay in all cases: growth of human tumour cells (NCI), 48 h
HCT-15 = system: HCT-15
OVCAR-3 = system: OVCAR-3
SW-620 = system: SW-620
SK-MEL-2 = system: SK-MEL-2
KM12 = system: KM12
A549 = system: A549
SNB-75 = system: SNB-75
DLD-1 = system: DLD-1
UACC-257 = system: UACC-257
OVCAR-8 = system: OVCAR-8
HCC 2998 = system: HCC 2998
NCI-H522 = system: NCI-H522
HT-29 = system: HT-29
U-251 = system: U-251
SK-MEL-5 = system: SK-MEL-5
LOX IMVI = system: LOX IMVI
EKVX = system: EKVX
RXF 393 = system: RXF 393
SK-OV-3 = system: SK-OV-3
BT-549 = system: BT-549

Compound | GI50 (HCT-15) [µM] | GI50 (OVCAR-3) | GI50 (SW-620) | GI50 (SK-MEL-2) | GI50 (KM12) | GI50 (A549) | GI50 (SNB-75) | GI50 (DLD-1) | GI50 (UACC-257) | GI50 (OVCAR-8) | GI50 (HCC 2998) | GI50 (NCI-H522) | GI50 (HT-29) | GI50 (U-251) | GI50 (SK-MEL-5) | GI50 (LOX IMVI) | GI50 (EKVX) | GI50 (RXF 393) | GI50 (SK-OV-3) | GI50 (BT-549)
CN(C)Cc1[nH]c2ccccc2c1C(=O)c1ccccc1 | > 100 | > 100 µM (inactive) | > 100 µM (inactive) | > 100 µM (inactive) | > 100 µM (inactive) | > 100 µM (inactive) | 21.9 µM (inactive) | > 100 µM (inactive) | > 100 µM (inactive) | > 100 µM (inactive) | 99.1 µM (inactive) | > 100 µM (inactive) | > 100 µM (inactive) | > 100 µM (inactive) | 58.1 µM (inactive) | – | – | – | – | –
CC1=NN(C(=O)Cc2ccccc2)C(=O)/C1=C\c1cccc(O)c1 | > 100 | > 100 µM (inactive) | > 100 µM (inactive) | > 100 µM (inactive) | > 100 µM (inactive) | > 100 µM (inactive) | > 100 µM (inactive) | > 100 µM (inactive) | > 100 µM (inactive) | > 100 µM (inactive) | > 100 µM (inactive) | > 100 µM (inactive) | > 100 µM (inactive) | > 100 µM (inactive) | > 100 µM (inactive) | > 100 µM (inactive) | > 100 µM (inactive) | – | – | –
COc1ccc(/C=C2\C(=O)N(C(=O)c3ccc(NC(C)=O)cc3)N=C2C)cc1 | > 100 | > 100 µM (inactive) | > 100 µM (inactive) | > 100 µM (inactive) | > 100 µM (inactive) | > 100 µM (inactive) | > 100 µM (inactive) | > 10 µM (inactive) | > 100 µM (inactive) | > 100 µM (inactive) | > 100 µM (inactive) | > 100 µM (inactive) | > 100 µM (inactive) | – | > 100 µM (inactive) | > 100 µM (inactive) | > 100 µM (inactive) | – | – | –
Cn1c(=O)c(C(=O)NC(=O)OCc2ccccc2)cn(CCSCCOC(=O)NCCCCCCNC(=O)OCCSCCn2cc(C(=O)NC(=O)OCc3ccccc3)c(=O)n(C)c2=O)c1=O | > 100 | – | > 100 µM (inactive) | > 100 µM (inactive) | – | > 100 µM (inactive) | 17.8 µM (inactive) | > 100 µM (inactive) | – | > 100 µM (inactive) | > 100 µM (inactive) | > 100 µM (inactive) | – | 63.4 µM (inactive) | > 100 µM (inactive) | > 100 µM (inactive) | > 100 µM (inactive) | 33.7 µM (inactive) | – | –
CSc1nc(NC2OC(COC(C)=O)C(OC(C)=O)C(OC(C)=O)C2OC(C)=O)c2c(OC(C)=O)c(C)c(=O)oc2n1 (configuration not stated) | > 100 | > 100 µM (inactive) | > 100 µM (inactive) | > 100 µM (inactive) | > 100 µM (inactive) | > 100 µM (inactive) | > 100 µM (inactive) | > 100 µM (inactive) | > 100 µM (inactive) | > 100 µM (inactive) | > 100 µM (inactive) | – | > 100 µM (inactive) | > 100 µM (inactive) | > 100 µM (inactive) | > 100 µM (inactive) | > 100 µM (inactive) | > 100 µM (inactive) | > 100 µM (inactive) | –
CC1(Br)C(=O)NC(=O)N([C@H]2C[C@H](O)[C@@H](CO)O2)C1N=[N+]=[N-] (some centres not stated) | > 100 | > 100 µM (inactive) | > 100 µM (inactive) | > 100 µM (inactive) | > 100 µM (inactive) | > 100 µM (inactive) | > 100 µM (inactive) | > 100 µM (inactive) | > 100 µM (inactive) | > 100 µM (inactive) | > 100 µM (inactive) | > 100 µM (inactive) | > 100 µM (inactive) | > 100 µM (inactive) | > 100 µM (inactive) | > 100 µM (inactive) | > 100 µM (inactive) | > 100 µM (inactive) | > 100 µM (inactive) | –
NC1=NN(c2ccccc2)C(=O)C1C(=O)C(=O)NC1C2CC3CC(C2)CC1C3 (configuration not stated) | > 100 | > 100 µM (inactive) | > 100 µM (inactive) | > 100 µM (inactive) | > 100 µM (inactive) | > 100 µM (inactive) | – | > 100 µM (inactive) | > 100 µM (inactive) | > 100 µM (inactive) | > 100 µM (inactive) | – | > 100 µM (inactive) | > 100 µM (inactive) | > 100 µM (inactive) | > 100 µM (inactive) | > 100 µM (inactive) | > 100 µM (inactive) | 24.9 µM (inactive) | –
O=C(NO)c1ccc([N+](=O)[O-])cc1 | 64.3 | 44.7 µM (inactive) | 50.8 µM (inactive) | 32.1 µM (inactive) | 64.9 µM (inactive) | 64.4 µM (inactive) | 23.9 µM (inactive) | 51.3 µM (inactive) | 28.6 µM (inactive) | 25.2 µM (inactive) | 37.8 µM (inactive) | 21 µM (inactive) | 48 µM (inactive) | 43 µM (inactive) | 70.3 µM (inactive) | 40.8 µM (inactive) | 27.1 µM (inactive) | 18.3 µM (inactive) | > 100 µM (inactive) | –
O=[PH](O)c1cccnc1 | > 100 | > 100 µM (inactive) | > 100 µM (inactive) | – | > 100 µM (inactive) | > 100 µM (inactive) | > 100 µM (inactive) | > 100 µM (inactive) | > 100 µM (inactive) | > 100 µM (inactive) | > 100 µM (inactive) | > 100 µM (inactive) | > 100 µM (inactive) | > 100 µM (inactive) | > 100 µM (inactive) | > 100 µM (inactive) | > 100 µM (inactive) | > 100 µM (inactive) | > 100 µM (inactive) | –
COC(=O)C12OCC34C(CC5C(C)C6=CC(=O)OC6=CC5(C)C3C(O)C1O)OC(=O)C(OC(C)=O)C24 (configuration not stated) | 15.3 | 14.3 µM (inactive) | 9.4 µM (inactive) | 10.1 µM (inactive) | 16.4 µM (inactive) | 19.8 µM (inactive) | 0.887 µM (active) | 14.6 µM (inactive) | 14.1 µM (inactive) | 16.3 µM (inactive) | 16.1 µM (inactive) | 8.91 µM (inactive) | 16.3 µM (inactive) | 23.5 µM (inactive) | 15.3 µM (inactive) | 17.6 µM (inactive) | 16.7 µM (inactive) | 13.7 µM (inactive) | 29 µM (inactive) | –
Cc1ccc(N2C(=O)C(Cl)=C(Cl)C2=O)cc1 | 19.2 | 16.9 µM (inactive) | 19.7 µM (inactive) | > 100 µM (inactive) | 20.5 µM (inactive) | 37.6 µM (inactive) | 22.5 µM (inactive) | 20.9 µM (inactive) | 19.1 µM (inactive) | – | 34.4 µM (inactive) | 13 µM (inactive) | 19.1 µM (inactive) | 38.3 µM (inactive) | 40.9 µM (inactive) | 23.6 µM (inactive) | 21.5 µM (inactive) | 12.5 µM (inactive) | 44 µM (inactive) | –
CN1CC[C@]2(C)c3c(O)cccc3CC3CCCC1C32C (some centres not stated) | > 100 | > 100 µM (inactive) | – | > 100 µM (inactive) | > 100 µM (inactive) | > 100 µM (inactive) | 45.4 µM (inactive) | > 100 µM (inactive) | > 100 µM (inactive) | > 100 µM (inactive) | 15.8 µM (inactive) | > 100 µM (inactive) | > 100 µM (inactive) | > 100 µM (inactive) | > 100 µM (inactive) | > 100 µM (inactive) | > 100 µM (inactive) | > 100 µM (inactive) | > 100 µM (inactive) | –
O=c1c(-c2ccccc2)c2oc(c1-c1ccccc1)CS(=O)(=O)CCC2 | 15.6 | 22.6 µM (inactive) | 32.7 µM (inactive) | > 100 µM (inactive) | 32.2 µM (inactive) | 57.3 µM (inactive) | – | 21.6 µM (inactive) | 28.8 µM (inactive) | 36.8 µM (inactive) | > 10 µM (inactive) | 9.98 µM (inactive) | 25.5 µM (inactive) | – | 27.7 µM (inactive) | 20.2 µM (inactive) | > 100 µM (inactive) | 13.8 µM (inactive) | > 100 µM (inactive) | –
COc1cc(/C=C(\NC(=O)c2ccccc2)c2nc3ccc4c(c3[nH]2)C(=O)c2ccccc2C4=O)cc(OC)c1OC | 35.7 | 38.1 µM (inactive) | 38.3 µM (inactive) | 50.5 µM (inactive) | 8.05 µM (inactive) | 21.4 µM (inactive) | 22.9 µM (inactive) | 7.11 µM (inactive) | > 100 µM (inactive) | 41.6 µM (inactive) | > 100 µM (inactive) | 7.24 µM (inactive) | > 100 µM (inactive) | 31.9 µM (inactive) | 35 µM (inactive) | 20.3 µM (inactive) | 44 µM (inactive) | 22.8 µM (inactive) | 18.6 µM (inactive) | –
COc1cc(C(C)O)c[n+](CCc2c[nH]c3ccccc23)c1 (configuration not stated) | > 100 | 66.5 µM (inactive) | > 100 µM (inactive) | > 100 µM (inactive) | > 100 µM (inactive) | > 100 µM (inactive) | 89.9 µM (inactive) | > 100 µM (inactive) | > 100 µM (inactive) | > 100 µM (inactive) | > 100 µM (inactive) | 83.9 µM (inactive) | 58.6 µM (inactive) | > 100 µM (inactive) | > 100 µM (inactive) | > 100 µM (inactive) | 48.3 µM (inactive) | > 100 µM (inactive) | – | –
O=P1(N(CCCl)CCCl)NCCCO1 (configuration not stated) [CYCLOPHOSPHAMIDE ANHYDROUS] | > 250 | > 243 µM (inactive) | > 250 µM (inactive) | > 238 µM (inactive) | > 238 µM (inactive) | > 239 µM (inactive) | > 232 µM (inactive) | > 250 µM (inactive) | 211 µM (inactive) | > 238 µM (inactive) | 193 µM (inactive) | > 250 µM (inactive) | > 226 µM (inactive) | > 250 µM (inactive) | > 242 µM (inactive) | 248 µM (inactive) | > 250 µM (inactive) | > 250 µM (inactive) | 248 µM (inactive) | > 250 µM (inactive)
